For data set [1], the system named is Colletotrichum lindemuthianum. As to the kind of experiment: B-8. Colletotrichum lindemuthianum in vitro cell test. In kind it is cell-based. The note with it: 144 h, 20 ppm of active ingredient, 6 days incubation, liquid culture, absorbance, read-out: efficacy (inhibition of fungal growth). The procedure, abridged:
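Spore suspension of C. lindemuthianum in liquid medium exposed to DMSO-solubilized compounds (final DMSO ≤1%) for 6 days. Mycelial growth read by absorbance, with inhibition calculated relative to compound-free control wells.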

The nature of data set [2]: Measurement of Log P values by HPLC on reversed phase columns (EEC directive 79/831 Annex V.A8). In kind it is physicochemical. The following applies: reversed phase HPLC column, method [a]: LC-UV, acidic range, 0.1% formic acid in water and acetonitrile as eluent. The procedure, abridged: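 Reversed-phase HPLC with UV detection per EEC 79/831 Annex V.A8, linear 10–95% acetonitrile gradient. Aqueous eluent: 0.1% formic acid (acidic), 0.001 M ammonium acetate (neutral), or 0.1% phosphoric acid (acidic); multiple values in one method joined by "+".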

Data set [3] has as its system Botrytis cinerea. As to the kind of experiment: B-11. Botrytis cinerea in vitro cell test. In kind it is cell-based. The note with it: 144 h, 20 ppm of active ingredient, 6 days incubation, liquid culture, absorbance, read-out: efficacy (inhibition of fungal growth). The procedure, abridged:
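B. cinerea spores were grown in liquid culture with compound (DMSO ≤1% final). Mycelium growth was measured spectrometrically after 6 days, with inhibition taken as absorbance relative to untreated control wells.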

For another data set, the system named is Alternaria brassicae. As to the kind of experiment: In vivo preventive test on Alternaria brassicae (leaf spot on radish or cabbage). The note with it: 500 ppm of active ingredient, preventive spray on radish or cabbage, evaluated 3 to 4 days after inoculation, read-out: efficacy. In a few lines: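 Young radish or cabbage plants were sprayed with compound dissolved in DMSO/acetone/Tween 80 and diluted in water; controls received solvent only. Inoculation by spraying A. brassicae spore suspension 24 h later, then 3–4 days at 20 °C and 100% relative humidity.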

A further data set has as its system Alternaria alternata. Put plainly: Alternaria alternata in vitro cell test. In kind it is cell-based. The following applies: 120 h, 20 ppm of active ingredient, liquid culture, 5 days incubation, spectrometric measurement of mycelium growth, read-out: efficacy (inhibition of fungal growth). The procedure, abridged: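 Liquid culture assay in which A. alternata spores in medium received DMSO-solubilized compound (final DMSO ≤1%). After 5 days, mycelium growth was measured spectrometrically. Inhibition was calculated against fungicide-free control wells.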

In the next data set the test system is Sphaerotheca fuliginea. As to the kind of experiment: In vivo preventive test on Sphaerotheca fuliginea (powdery mildew on cucurbits). The note with it: Podosphaera fuliginea, 192 h; 500 ppm of active ingredient; preventive spray on gherkin; evaluated 8 days after inoculation; read-out: efficacy. As for the experimental part:
B-4. in vivo preventive test on Sphaerotheca fuliginea (powdery mildew on cucurbits) [table] The active ingredients were made soluble and homogenized in a mixture of Dimethyl sulfoxide/Acetone/Tween® 80 and then diluted in water to the desired concentration. The young plants of gherkin were treated by spraying the active ingredient prepared as described above. Control plants were treated only with an aqueous solution of Acetone/Dimethyl sulfoxide/Tween® 80. After 24 hours, the plants were contaminated by spraying the leaves with an aqueous suspension of Sphaerotheca fuliginea spores. The contaminated gherkin plants were incubated for 8 days at 20° C. and at 70-80% relative humidity.

A further data set deals with Pyrenophora teres. As to the kind of experiment: B-10. Pyrenophora teres in vitro cell test. In kind it is cell-based. The note with it: 144 h, 20 ppm of active ingredient, 6 days incubation, liquid culture, absorbance, read-out: efficacy (inhibition of fungal growth). In a few lines: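 Liquid-culture assay on a P. teres spore suspension with compounds added to the medium from DMSO solutions, final DMSO ≤1%. Mycelium growth read spectrometrically after 6 days. Inhibition calculated from absorbance against untreated control wells.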

Data set [4] concerns Botrytis cinerea. Put plainly: In vivo preventive test on Botrytis cinerea (grey mould). The note with it: 500 ppm of active ingredient, preventive spray on gherkin or cabbage, evaluated 4 to 5 days after inoculation, read-out: efficacy. In a few lines: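 Young gherkin or cabbage plants were sprayed with compound in DMSO/acetone/Tween 80 diluted in water, then inoculated 24 hours later with a B. cinerea spore suspension. Incubation lasted 4 to 5 days: gherkin at 17° C., 90% relative humidity; cabbage at 20° C., 100% relative humidity.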

The subject of data set [5] is Colletotrichum lindemuthianum. As to the kind of experiment: In vivo preventive test on Colletotrichum lindemuthianum (leaf spot on bean). The note with it: 168 h, 500 ppm of active ingredient, preventive spray on bean, evaluated 7 days after inoculation, read-out: efficacy. Here is the method: B-5. In Vivo Preventive Test on Colletotrichum lindemuthianum (Leaf Spot on Bean) [table] The active ingredients were made soluble and homogenized in a mixture of Dimethyl sulfoxide/Acetone/Tween® 80 and then diluted in water to the desired concentration. The young plants of bean were treated by spraying the active ingredient prepared as described above. Control plants were treated only with an aqueous solution of Acetone/Dimethyl sulfoxide/Tween® 80. After 24 hours, the plants were contaminated by spraying the leaves with an aqueous suspension of Colletotrichum lindemuthianum spores. The contaminated bean plants were incubated for 24 hours at 20° C. and at 100% relative humidity and then for 6 days at 20° C. and at 90% relative humidity.

As a reminder, the inhibition is the relative decrease from the control value, in per cent. Usually chromatographic logP stands for a lipophilicity value derived from retention on a column. On to `O=C(N[C@H]1CCOc2ccccc21)c1c(Oc2cccc(C(F)(F)F)c2)nnc2ccccc12` [I-172], for which the inhibition at 20 ppm (in data set [1]; with Botrytis cinerea [3]; with Alternaria alternata; in the data set on Pyrenophora teres) was 90 to 100% throughout. Moreover, the chromatographic logP in [2] is 3.65. Further, the figures for the pest or weed control at 500 ppm in the data set with Alternaria brassicae and with Sphaerotheca fuliginea were 90 to 100% and 80 to 89%, respectively.
With `Cc1ccc(C(F)(F)CNC(=O)c2c(Oc3cccc(Br)c3F)cnc3ccccc23)c(C)c1` [I-225], the inhibition at 20 ppm (in data set [1]; with Botrytis cinerea [3]; in the data set with Alternaria alternata; in the data set on Pyrenophora teres) was 90 to 100% each time. In data set [2], this compound came in with a chromatographic logP of 4.43. The pest or weed control at 500 ppm in the data set on Alternaria brassicae fell in the range of 70 to 79%; with Sphaerotheca fuliginea, 90 to 100%; in the data set on Botrytis cinerea [4], 90 to 100%.
For the compound `Cc1ccc(C(F)(F)CNC(=O)c2c(Oc3cccc(C(F)(F)F)c3)nnc3c2CCC3(C)C)c(C)c1` [I-232], the inhibition at 20 ppm in data set [1] was 70 to 79%; in the data set with Botrytis cinerea [3], 90 to 100%; in the data set with Pyrenophora teres it was 90 to 100%. Further, in data set [2], the chromatographic logP was found to be 4.85. For the same compound, the results for the pest or weed control at 500 ppm in the data set with Alternaria brassicae, with Sphaerotheca fuliginea and in the data set with Botrytis cinerea [4] were 80 to 89%, 90 to 100% and 90 to 100%, respectively.
For the compound `O=C(NCC(F)(F)c1ccc(Cl)cc1)c1c(Oc2cccc(C(F)F)c2)nnc2ccccc12` [I-034], the pest or weed control at 500 ppm in data set [5] was in the range of 80 to 89%; in the data set on Alternaria brassicae it was 90 to 100%; in the data set with Botrytis cinerea [4] it was 90 to 100%. The inhibition at 20 ppm (in [1]; with Alternaria alternata) was 90 to 100% in each case. In data set [2], this compound displayed a chromatographic logP of 3.68.
In the case of `Cc1ccc(C(F)(F)CNC(=O)c2c(Oc3cccc(C(F)(F)F)c3)c(C)nc3ccccc23)c(C)c1` [I-185], in data set [2], the chromatographic logP was found to be 4.59. The values for the pest or weed control at 500 ppm with Alternaria brassicae and in the data set with Sphaerotheca fuliginea were 70 to 79% and 90 to 100%, respectively. Also, the values for the inhibition at 20 ppm in the data set on Alternaria alternata and in the data set on Pyrenophora teres were 80 to 89% and 90 to 100%, respectively.
`COc1cc([C@@H](F)CNC(=O)c2c(Oc3cccc(Cl)c3)nnc3ccccc23)ccc1Cl` (racemic) [I-050]: the pest or weed control at 500 ppm in data set [5] is 80 to 89%; with Alternaria brassicae it was 90 to 100%; with Botrytis cinerea [4] it was 80 to 89%. Also, the inhibition at 20 ppm (in data set [1]; in the data set with Botrytis cinerea [3]; in the data set with Alternaria alternata) was 90 to 100% throughout. In data set [2], this compound showed a chromatographic logP of 3.77.
Take `Cc1ccc(CCNC(=O)c2c(Oc3cccc(C(F)(F)F)c3)nnc3ccc(F)cc23)c(C)c1` [I-006]: the inhibition at 20 ppm (in [1]; in the data set with Botrytis cinerea [3]; in the data set with Alternaria alternata) was 90 to 100% each time. In data set [2], this compound registered a chromatographic logP of 4.46. The pest or weed control at 500 ppm with Alternaria brassicae, with Sphaerotheca fuliginea and in the data set on Botrytis cinerea [4] was 90 to 100% each time.
As to `Cc1ccc2c(c1)CCC[C@@H]2NC(=O)c1c(Oc2cccc(C(F)(F)F)c2)nnc2ccccc12` (racemic) [I-078], the inhibition at 20 ppm (in [1]; in the data set on Botrytis cinerea [3]; with Alternaria alternata; with Pyrenophora teres) was 90 to 100% each time. The compound further displayed a chromatographic logP in data set [2] of 4.47. In addition, the pest or weed control at 500 ppm in the data set on Alternaria brassicae, in the data set with Sphaerotheca fuliginea and with Botrytis cinerea [4] was 90 to 100% each time.
Regarding `C#Cc1cccc(Oc2cnc3ccccc3c2C(=O)NCC(F)(F)c2ccc(C)cc2C)c1` [I-215], the inhibition at 20 ppm in data set [1] was in the range of 90 to 100%; with Botrytis cinerea [3], 90 to 100%; in the data set on Alternaria alternata, 80 to 89%; with Pyrenophora teres it was 90 to 100%. The compound also yielded a chromatographic logP in data set [2] of 4.13. Besides, the pest or weed control at 500 ppm in the data set with Alternaria brassicae was in the range of 80 to 89%; in the data set with Sphaerotheca fuliginea, 90 to 100%; in the data set on Botrytis cinerea [4], 90 to 100%.

Values taken from patent US20230192617A1, “AZABICYCLIC(THIO)AMIDES AS FUNGICIDAL COMPOUNDS” (Bayer CropScience Aktiengesellschaft, priority 2020, published 2023).
